# Measurements taken from US20060052459A1, “Antifungal medicaments comprising arylamidine derivatives” (priority 2002, published 2006).
# Where two headings read alike, the source gives them in different places.
# Legend:
# [1] = test system: Aspergillus fumigatus strain IP 864.64; experiment: In vitro antifungal growth inhibition on microtitre plates (optical density 590 nm), compounds alone or as mixtures (Wadley method); assay type: cell-based; details: Aspergillus fumigatus, IP864.64, 48 h, 48 hours at 30° C.; for inhibition at 0.026 µg/mL: dose 0.026 μg/ml; for inhibition at 0.098 µg/mL: dose 0.098 μg/ml; for inhibition at 0.39 µg/mL: dose 0.39 μg/ml; for inhibition at 1.562 µg/mL: dose 1.562 μg/ml; for inhibition at 6.25 µg/mL: dose 6.25 μg/ml; for inhibition at 25 µg/mL: dose 25 μg/ml; for inhibition at 100 µg/mL: dose 100 μg/ml; for EC50: read-out: EC50
# Procedure: (§1) The following fungi were used for this study: Candida albicans strains IP 48.72 (ATCC 10231) and Aspergillus fumigatus strain IP 864.64 obtained from the Collection Nationale de Cultures de Microorganismes (CNCM) of the Institut Pasteur. The strains are cultured on Yeast Extract-Peptone-Dextrose (YEPD) agar medium comprising 0.5% yeast extract, 0.5% bactopeptone, 2% glucose and 2% agar at 30° C. and in the dark.
# (§2) All these compounds were prepared in a DMSO solution at a final concentration of 100 mg/ml. The stock solutions are stored at −20° C. up to the time of use.
# (§3) The trials are carried out in RPMI 1640 medium with no sodium bicarbonate, but with L-glutamine buffered with 0.165 mol per litre of 3-[N-morpholino]propanesulphonic acid (MOPS), enriched (<>) or otherwise (<>) with 2% glucose. The pH of this medium is adjusted to 7.0. The medium is sterilized by filtration (0.22 μm) and stored at 4° C. up to the time of use.
# (§4) All the antifungal tests are carried out on microtitre plates. The initial suspensions of spores are prepared in a sterile solution containing 0.85% NaCl, supplemented with Tween 80 at 0.01%. These initial suspensions are then diluted in the culture medium (RPMI 1640 enriched or otherwise with 2% glucose) to a final concentration of 10^4 spores per ml. The measurements of viability of each inoculum are verified by subcultures of a volume of 300 μl on YEPD agar medium.
# (§5) The antifungal compounds are tested in a range of concentrations ranging from 0.026 to 100 μg of active ingredient/ml. These antifungal compounds are then diluted in RPMI 1640 medium enriched or otherwise with 2% glucose. A final DMSO concentration of 0.2% is used throughout the measurements. Each trial is carried out on a series of dilutions of antifungal compounds, in duplicate. The antifungal dilutions (0.1 ml) and the fungal inoculum (0.1 ml) are added to each of the wells of the microtitre plate. The plates are then read with a spectrophotometer (ELX 800UV Bio-Tek Instruments, Inc) at a wavelength of 590 nm. The plates are read immediately after (t=0) and after 48 hours' incubation at 30° C. and in the dark. The optical density values obtained are correlated with fungal growth between the times t=0 and t=48 hours. The optical density values are used to calculate the percentage inhibition of growth for each concentration of antifungals by comparison with the control. The values are then used to plot a dose-response curve and the EC50 value is determined for each fungus and each compound with the aid of the Grafit 5.0® software (Erithacus software Ltd).
# (§6) The method which was used to measure the type of interaction existing between the antifungal compounds in the form of mixtures is the Wadley method.
# (§7) In the Wadley approach, the dose-response curve for each of the compounds A and B, and for the mixture AB, is constructed. The EC50 is calculated for each compound taken individually and for the mixture. If a and b are the absolute quantities of the compounds A and B in the mixture (a=1, b=1, a+b=2 under our conditions), the expected effective concentration (EC50exp) may be calculated in the following manner: EC50exp=(a+b)/[a/EC50A)+b/(EC50B)
# (§8) The Wadley approach may be used to estimate the type of interaction existing between the fungal compounds, regardless of their concentration. Its reliability is not dependent on the percentage inhibition. The type of interaction between two compounds is given by the level of interaction (LI) which corresponds to the ratio between the expected effective concentration (EC50exp) and that observed (EC50obs) of the mixture. The nature of the interaction obtained by the Wadley formula is presented in Table 1 (see U. Gisi, Synergistic interaction in fungicide mixtures, 1996. Phytopathology 86, 1273-1279) below.
# (§9) The experimental conditions are the same as previously described.
# [2] = test system: Candida albicans strains IP 48.72 (ATCC 10231); experiment: as above; assay type: cell-based; details: Candida albicans, ATCC10231, 48 h, 48 hours at 30° C.; for inhibition at 0.026 µg/mL: dose 0.026 μg/ml; for inhibition at 0.098 µg/mL: dose 0.098 μg/ml; for inhibition at 0.39 µg/mL: dose 0.39 μg/ml; for inhibition at 1.562 µg/mL: dose 1.562 μg/ml; for inhibition at 6.25 µg/mL: dose 6.25 μg/ml; for inhibition at 25 µg/mL: dose 25 μg/ml; for inhibition at 100 µg/mL: dose 100 μg/ml; for EC50: read-out: EC50
# Procedure: as §1, §2, §3, §4, §5, §6, §7, §8, §9
# [3] = minimal RPMI 1640 medium (MM), used alone
# [4] = rich RPMI 1640 medium (RM), used alone
smiles,measurement,setting,value
"CCC(C)n1ncn(-c2ccc(N3CCN(c4ccc(OCC5COC(Cn6cncn6)(c6ccc(Cl)cc6Cl)O5)cc4)CC3)cc2)c1=O (stereo not shown) [Compound II.2, itraconazole]",inhibition at 0.026 µg/mL,[1]; minimal RPMI 1640 medium (MM),2.2%
same,inhibition at 0.026 µg/mL,[1]; rich RPMI 1640 medium (RM),18.6%
same,inhibition at 0.098 µg/mL,[1]; minimal RPMI 1640 medium (MM),31.8%
same,inhibition at 0.098 µg/mL,[1]; rich RPMI 1640 medium (RM),47.5%
same,inhibition at 0.39 µg/mL,[1]; minimal RPMI 1640 medium (MM),49.3%
same,inhibition at 0.39 µg/mL,[1]; rich RPMI 1640 medium (RM),88.6%
same,inhibition at 1.562 µg/mL,[1]; minimal RPMI 1640 medium (MM),99.6%
same,inhibition at 1.562 µg/mL,[1]; rich RPMI 1640 medium (RM),99.2%
same,inhibition at 6.25 µg/mL,[1]; minimal RPMI 1640 medium (MM),100%
same,inhibition at 6.25 µg/mL,[1]; rich RPMI 1640 medium (RM),100%
same,inhibition at 25 µg/mL,[1]; minimal RPMI 1640 medium (MM),100%
same,inhibition at 25 µg/mL,[1]; rich RPMI 1640 medium (RM),100%
same,inhibition at 100 µg/mL,[1]; minimal RPMI 1640 medium (MM),99%
same,inhibition at 100 µg/mL,[1]; rich RPMI 1640 medium (RM),100%
same,EC50,[1]; [3],0.27 µg/mL
same,EC50,[1]; [4],0.27 µg/mL
same,EC50,"[1]; second study, strain IP 864.64, RPMI 1640 medium enriched with 2% glucose",0.187 µg/mL
same,inhibition at 0.026 µg/mL,[2]; minimal RPMI 1640 medium (MM),58.1%
same,inhibition at 0.026 µg/mL,[2]; rich RPMI 1640 medium (RM),44.7%
same,inhibition at 0.098 µg/mL,[2]; minimal RPMI 1640 medium (MM),75.4%
same,inhibition at 0.098 µg/mL,[2]; rich RPMI 1640 medium (RM),85.1%
same,inhibition at 0.39 µg/mL,[2]; minimal RPMI 1640 medium (MM),78.2%
same,inhibition at 0.39 µg/mL,[2]; rich RPMI 1640 medium (RM),86.2%
same,inhibition at 1.562 µg/mL,[2]; minimal RPMI 1640 medium (MM),74.6%
same,inhibition at 1.562 µg/mL,[2]; rich RPMI 1640 medium (RM),85.1%
same,inhibition at 6.25 µg/mL,[2]; minimal RPMI 1640 medium (MM),78.6%
same,inhibition at 6.25 µg/mL,[2]; rich RPMI 1640 medium (RM),86.2%
same,inhibition at 25 µg/mL,[2]; minimal RPMI 1640 medium (MM),87.9%
same,inhibition at 25 µg/mL,[2]; rich RPMI 1640 medium (RM),95.2%
same,inhibition at 100 µg/mL,[2]; minimal RPMI 1640 medium (MM),95.2%
same,inhibition at 100 µg/mL,[2]; rich RPMI 1640 medium (RM),95.2%
same,EC50,[2]; [3],0.022 µg/mL
same,EC50,[2]; [4],0.017 µg/mL
same,EC50,"[2]; second study, strain IP 48.72, RPMI 1640 medium enriched with 2% glucose",0.082 µg/mL
